# Assay results: ChEMBL document CHEMBL6182942, “Discovery of a Selective, Novel TGF-βR1 Inhibitor GFH018 for the Treatment of Solid Tumors” (J Med Chem, 2025)
# Activity calls are given as the source filed them. The rule behind the calls is not given here.
# Key:
# [1] = Clearance in CD-1 mouse at 1 mg/kg, iv by LC-MS/MS analysis; type: ADME, organism-based; settings: in vivo
# [2] = biological target: Mitogen-activated protein kinase 14 (Homo sapiens, UniProt Q16539); assay: Inhibition of p38alpha (unknown origin) measured after 40 mins in presence of [gamma-33P]ATP by microbeta liquid scintillation counting analysis; type: toxicity
# Sequence of Mitogen-activated protein kinase 14 (Q16539 whole entry): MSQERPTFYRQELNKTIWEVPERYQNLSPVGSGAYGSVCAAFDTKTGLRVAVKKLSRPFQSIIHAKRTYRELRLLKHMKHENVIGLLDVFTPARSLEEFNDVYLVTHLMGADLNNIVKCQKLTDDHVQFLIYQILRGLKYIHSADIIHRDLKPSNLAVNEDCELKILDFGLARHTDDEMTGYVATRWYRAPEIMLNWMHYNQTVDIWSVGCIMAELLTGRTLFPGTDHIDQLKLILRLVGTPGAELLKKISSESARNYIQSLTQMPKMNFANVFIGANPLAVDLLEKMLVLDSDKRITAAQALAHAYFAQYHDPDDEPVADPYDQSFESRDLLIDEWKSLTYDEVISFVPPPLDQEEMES
# [3] = test system: H22; assay: Antitumor activity against mouse H22 cells implanted in BALB/c mouse assessed as tumor growth inhibition at 15 mg/kg, po administered twice daily for 11 days and measured 3 times per week during compound dosing relative to control; type: functional; settings: H22, 264 h, time 11 day, read-out: TGI
# [4] = test system: 4T1-Luc; assay: Antimetastatic activity against mouse 4T1-Luc cells implanted in BALB/c mouse assessed as reduction in metastatic rate in kidney at 100 mg/kg, po administered daily for 32 days and measured on day 30 to 35 by IVIS fluorescence analysis; type: functional, organism-based; settings: time 35.0 day
# [5] = test system: 4T1-Luc; assay: Antimetastatic activity against mouse 4T1-Luc cells implanted in BALB/c mouse assessed as reduction in metastatic rate in liver at 100 mg/kg, po administered daily for 32 days and measured on day 30 to 35 by IVIS fluorescence analysis; type: functional, organism-based; settings: time 35.0 day
# [6] = Time at which unbound plasma concentration required to show cellular IC50 for inhibition of smad phosphorylation in mouse H22 cell implanted BALB/c mouse at 50 mg/kg, po administered twice daily for 11 days; type: functional; settings: time 11 day
# [7] = Time at which unbound plasma concentration required to show cellular IC50 for inhibition of smad phosphorylation in mouse H22 cell implanted BALB/c mouse at 15 mg/kg, po administered twice daily for 11 days; type: functional; settings: time 11 day
# [8] = Half life in CD-1 mouse at 1 mg/kg, iv by LC-MS/MS analysis; type: ADME, organism-based; settings: in vivo
# [9] = biological target: Cytochrome P450 2C9 (Homo sapiens, UniProt P11712); assay: Inhibition of CYP2C9 in human liver microsomes using diclofenac as substrate preincubated for 10 mins followed by NADPH regeneration system addition and measured after 10 mins by LC-MS/MS analysis; type: ADME, Microsome
# Sequence of Cytochrome P450 2C9 (P11712 whole entry): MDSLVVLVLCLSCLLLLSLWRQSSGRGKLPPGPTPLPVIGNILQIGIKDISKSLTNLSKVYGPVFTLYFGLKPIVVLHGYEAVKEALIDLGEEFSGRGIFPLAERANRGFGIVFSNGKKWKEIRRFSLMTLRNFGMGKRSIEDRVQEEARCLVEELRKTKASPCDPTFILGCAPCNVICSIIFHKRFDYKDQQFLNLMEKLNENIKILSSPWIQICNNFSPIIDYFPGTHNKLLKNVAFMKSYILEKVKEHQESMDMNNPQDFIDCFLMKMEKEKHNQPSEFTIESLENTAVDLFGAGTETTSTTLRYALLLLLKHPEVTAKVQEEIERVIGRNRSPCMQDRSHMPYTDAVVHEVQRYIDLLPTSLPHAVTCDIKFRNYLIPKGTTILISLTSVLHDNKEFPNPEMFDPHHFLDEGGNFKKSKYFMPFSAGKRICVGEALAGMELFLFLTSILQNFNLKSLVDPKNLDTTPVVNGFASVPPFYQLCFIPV
# [10] = Drug metabolism in mouse hepatocytes; type: ADME, cell-based, Hepatocyte
# [11] = AUC (0 to last) in CD-1 mouse at 5 mg/kg, po via gavage by LC-MS/MS analysis; type: ADME, organism-based; settings: in vivo
# [12] = biological target: TRAF2 and NCK-interacting protein kinase (Homo sapiens) (UniProt Q9UKE5); assay: Inhibition of TNIK (unknown origin) assessed as residual activity at 1 uM relative to control
# Sequence of TRAF2 and NCK-interacting protein kinase (Homo sapiens) (Q9UKE5 whole entry, looked up): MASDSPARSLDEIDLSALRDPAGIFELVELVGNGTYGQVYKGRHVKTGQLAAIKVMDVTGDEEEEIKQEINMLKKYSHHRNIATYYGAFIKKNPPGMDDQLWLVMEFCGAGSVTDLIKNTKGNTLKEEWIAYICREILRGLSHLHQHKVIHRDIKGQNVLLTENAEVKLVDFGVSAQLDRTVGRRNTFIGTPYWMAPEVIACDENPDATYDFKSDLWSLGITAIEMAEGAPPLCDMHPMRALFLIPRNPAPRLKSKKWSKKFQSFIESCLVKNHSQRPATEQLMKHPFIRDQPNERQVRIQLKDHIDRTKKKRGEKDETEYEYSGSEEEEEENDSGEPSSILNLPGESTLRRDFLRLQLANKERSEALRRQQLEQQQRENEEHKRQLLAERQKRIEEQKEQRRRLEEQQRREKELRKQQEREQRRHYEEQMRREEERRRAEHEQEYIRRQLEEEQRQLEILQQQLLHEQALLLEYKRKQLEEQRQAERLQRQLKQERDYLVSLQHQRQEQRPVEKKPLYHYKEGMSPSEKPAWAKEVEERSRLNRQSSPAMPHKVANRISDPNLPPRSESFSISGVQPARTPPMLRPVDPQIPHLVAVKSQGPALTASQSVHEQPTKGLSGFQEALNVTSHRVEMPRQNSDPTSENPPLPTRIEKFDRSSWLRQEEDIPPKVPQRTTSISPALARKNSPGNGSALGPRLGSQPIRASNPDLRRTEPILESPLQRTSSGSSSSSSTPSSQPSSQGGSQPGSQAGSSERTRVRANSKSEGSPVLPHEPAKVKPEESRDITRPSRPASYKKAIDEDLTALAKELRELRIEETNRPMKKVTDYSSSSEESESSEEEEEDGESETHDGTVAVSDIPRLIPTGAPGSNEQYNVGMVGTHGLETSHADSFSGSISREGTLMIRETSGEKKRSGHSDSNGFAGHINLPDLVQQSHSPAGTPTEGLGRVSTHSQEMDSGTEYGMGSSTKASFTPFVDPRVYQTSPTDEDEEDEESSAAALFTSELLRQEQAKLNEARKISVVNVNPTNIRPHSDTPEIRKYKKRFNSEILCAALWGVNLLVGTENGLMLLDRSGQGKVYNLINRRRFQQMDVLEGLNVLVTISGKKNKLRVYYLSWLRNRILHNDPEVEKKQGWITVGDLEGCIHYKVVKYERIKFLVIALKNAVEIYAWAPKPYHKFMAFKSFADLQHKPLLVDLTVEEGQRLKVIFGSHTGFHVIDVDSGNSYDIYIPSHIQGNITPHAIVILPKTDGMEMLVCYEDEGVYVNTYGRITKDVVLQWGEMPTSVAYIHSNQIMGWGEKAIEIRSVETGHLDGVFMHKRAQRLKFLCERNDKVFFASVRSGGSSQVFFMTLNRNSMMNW
# [13] = Mutagenicity in Salmonella typhimurium TA100 in presence of liver S9 fraction by Ames test; type: toxicity, subcellular; settings: salmonella enterica subsp. enterica serovar typhimurium
# [14] = Half life in Beagle dog at 5 mg/kg, po by LC-MS/MS analysis; type: ADME, organism-based, Canis lupus familiaris; settings: in vivo
# [15] = Drug metabolism in human hepatocytes; type: ADME, cell-based, Hepatocyte
# [16] = Drug metabolism in monkey hepatocytes; type: ADME, cell-based, Macaca mulatta, Hepatocyte; settings: rhesus monkey
# [17] = Metabolic stability in mouse liver microsomes assessed as parent compound remaining at 1 uM preincubated for 5 mins followed by NADPH addition by LC-MS/MS analysis; type: ADME, Microsome; settings: read-out: Stability
# [18] = Toxicity in mouse H22 cell implanted BALB/c mouse assessed as change in body weight at 15 to 50 mg/kg, po administered twice daily for 11 days measured daily during compound dosing; type: organism-based; settings: in vivo, 264 h, dose 15-50 mg/kg, time 11 day
# [19] = AUC (0 to last) in Beagle dog at 1 mg/kg, iv by LC-MS/MS analysis; type: ADME, organism-based, Canis lupus familiaris; settings: in vivo
# [20] = Protein binding in mouse plasma at 0.2 to 10 uM measured after 4 hrs by equilibrium dialysis based LC-MS/MS analysis; type: ADME, cell-free; settings: dose 0.2-10 µM, read-out: PPB (converted)
# [21] = test system: CD14-positive cell; assay: Immunostimulatory activity in human PBMC derived M-CSF stimulated CD14-positive cells assessed as reduction in IL-10 level at 0.1 to 10 uM supplemented with fresh medium containing compound on day 1, 3 and 5 followed by M-CSF/IL-4/IL-13 stimulation for 2 days with subsequent LPS induction and measured after 16 hrs; type: functional, cell-based; settings: dose 0.1-10 µM, time 7.0 day
smiles,measurement,setting,value
Cc1cccc(-c2nn3c(c2-c2ccc4ncnn4c2/C=C/C(N)=O)CCC3)n1,clearance,[1],63.3 mL/min/kg
same,IC50,[2],2.65 µM
same,inhibition in vivo at 15 mg/kg,[3],50.8%
same,Activity,[4],Active
same,Activity,[5],Active
same,T>IC50,[6],~5.5 h
same,T>IC50,[7],~3.5 h
same,half-life,[8],0.484 h
same,IC50,[9],> 100 µM
same,Drug metabolism,[10],metabolite_detected
same,AUClast,[11],285 nM.hr/ml
same,Activity,[12],< 50%
same,Activity,[13],Non-toxic
same,half-life,[14],2.83 h
same,Drug metabolism,[15],metabolite_detected
same,Drug metabolism,[16],metabolite_detected
same,remaining at 1 µM,[17],20.7%
same,Activity,[18],Non-toxic
same,AUClast,[19],5626 nM.hr/ml
same,"fraction unbound at 4 h, up to 10 µM",[20],0.554
same,Activity,[21],Active
